Test results: patent US8263591B2, “Bicyclic amides for enhancing glutamatergic synaptic responses” (Cortex Pharmaceuticals, Inc., priority 2007, dated 2012)

Tests used:
[1] = test system: Male CD1 mice; assay: Inhibition of d-Amphetamine stimulated locomotion; format: in vivo; conditions: 18 mpk i.p., d-amphetamine 2 mg/kg
Experimental: The ability of the invention compounds to inhibit d-Amphetamine stimulated locomotor activity was assayed according to the following procedure. Male CD1 mice, 25-30 gm body o weight, were brought into the experimental room and allowed at least 30 min of acclamation.
Each mouse was placed into the testing enclosure with an infrared beam array that automatically monitors the animal's activity. Mice were habituated in the testing enclosure for 20 min, and then returned to their home cage. Mice were dosed intraperitoneally with test compound in appropriate vehicle 5 minutes before d-Amphetamine injection (2 mpk). Ten minutes after d-Amphetamine injection, mice were tested for locomotor activity for a total of 15 minutes. The data was computer collected and expressed as “arbitrary movement units.” All data were analyzed by comparing the groups treated with the test compound to the vehicle control group. The data shown is the % inhibition of hyperactivity induced by acute administration of 2 mg/kg d-amphetamine in mice. […]
Male CD1 mice, 25-30 gm body weight, were brought into the experimental room and allowed at least 30 min of acclamation. […] The data was computer collected and expressed as “arbitrary movement units.” All data were analyzed by comparing the groups treated with the test compound to the vehicle control group.

[2] = test system: AMPA receptor; assay: In vivo electrophysiology: amplitude of field EPSP in dentate gyrus of anesthetized animals
Experimental: (§1) The electrophysiological effects of the invention compounds were tested in vivo in anesthetized animals according to the following procedures. Animals are maintained under anesthesia by phenobarbital administered using a Hamilton syringe pump. Stimulating and recording electrodes are inserted into the perforant path and dentate gyrus of the hippocampus, respectively. Once electrodes are implanted, a stable baseline of evoked responses are elicited using single monophasic pulses (100 μs pulse duration) delivered at 3/min to the stimulating electrode. Field EPSPs are monitored until a stable baseline is achieved (about 20-30 min), after which a solution of test compound is injected intraperitoneally and evoked field potentials are recorded. Evoked potentials were recorded for approximately 2 h following drug administration or until the amplitude of the field EPSP returns to baseline. In the latter instance, it is common that an iv administration is also carried out with an appropriate dose of the same test compound. Invention compounds were assayed in the in vivo electrophysiology assay described above and data for representative test compounds is shown in column 1 in Table 1.
The electrophysiological effects of invention compounds were tested in vivo in anesthetized animals according to the following procedures.
as §1, with “Animals” for “The electrophysiological effects of the invention compounds were tested in vivo in anesthetized animals according to the following procedures. Animals”, “are” for “were”, “compound.” for “compound. Invention compounds were assayed in the in vivo electrophysiology assay described above and data for representative test compounds is shown in column 1 in Table 1.”

melting point [°C]	Compound	% Inhibition of d-amphetamine stimulated locomotion [1] [%]	% increase in the amplitude of the field EPSP in the dentate gyrus of rat ([2]; 10 mpk i.p.) [%]	% increase in the amplitude of the field EPSP in the dentate gyrus of rat ([2]; dosed i.v.) [%^3]
138 to 139	O=C(c1ccc2nonc2c1)N1CC2CCC1CC2 [Example 9, 2-Azabicyclo[2.2.2]oct-2-yl([2,1,3]-benzoxadiazol-5-yl)methanone]			
169 to 171	O=C(c1ccc2nonc2c1)N1C2CCC1CC(O)C2 (stereo not drawn) [5]			
106 to 108	O=C(c1ccc2nonc2c1)N1CC2C=CC1C2 (stereo not drawn) [Example 11, 2-Azabicyclo[2.2.1]hept-5-en-2-yl([2,1,3]-benzoxadiazol-5-yl)methanone]			
	O=C(c1ccc2nonc2c1)N1C2C=C(F)CC1CC2 (stereo not drawn) [Example 4, [2,1,3]-benzoxadiazol-5-yl(3-fluoro-8-azabicyclo[3.2.1]oct-2-en-8-yl)methanone]		25	
156 to 157	O=C(c1ccc2nonc2c1)N1CC2CC1C(Cl)C2Cl (stereo not drawn) [Example 14, [2,1,3]-Benzoxadiazol-5-yl(5,6-dichloro-2-azabicyclo[2.2.1]hept-2-yl)methanone]			
92 to 93	O=C(c1ccc2nonc2c1)N1CC2CCC1C2 (stereo not drawn) [Example 7, 2-Azabicyclo[2.2.1]hept-2-yl([2,1,3]-benzoxadiazol-5-yl)methanone]			20
143 to 144	O=C(c1ccc2nonc2c1)N1C2CCC1CC2			
102 to 104	O=C(c1ccc2nonc2c1)N1CC2CC1CO2 (stereo not drawn) [Example 10, [2,1,3]-benzoxadiazol-5-yl(2-oxa-5azabicyclo[2.2.1]hept-5-yl)methanone]			
176 to 177	O=C(c1ccc2nonc2c1)N1C2CCC1CC(O)C2 (stereo not drawn) [6]			

Compound	melting point [°C]	% Inhibition of d-amphetamine stimulated locomotion [1] [%]	% increase in the amplitude of the field EPSP in the dentate gyrus of rat ([2]; 10 mpk i.p.) [%]	% increase in the amplitude of the field EPSP in the dentate gyrus of rat ([2]; dosed i.v.) [%^3]
O=C(c1ccc2nonc2c1)N1C2CCCC1CC2 [Example 1, 8-Azabicyclo[3.2.1]oct-8-yl([2,1,3]-benzoxadiazol-5-yl)methanone]	128 to 130	69	22	
O=C1CC2CCC(C1)N2C(=O)c1ccc2nonc2c1 [Example 2, 8-([2,1,3]-Benzoxadiazol-5-ylcarbonyl)-8-azabicyclo[3.2.1]octan-3-one]	164 to 166	40	16	
O=C(c1ccc2nonc2c1)N1C2CCC1CC(F)(F)C2 [Example 3, [2,1,3]-Benzoxadiazol-5-yl(3,3-difluoro-8-azabicyclo[3.2.1]oct-8-yl)methanone]	165 to 166		8	
